According to patent publication US20170266266A1, “Functions of 55 Newfound Proteins and Their Medicinal Application in the Treatment and Prevention of Disease” (priority 2012, published 2017):
“Also recorded” adds a separate entry of the source. Read-outs that look alike come from different tables or passages of the source.

Experiments:
[1] = system: atherosclerosis in New Zealand white rabbit on high fat diet; settings: for atherosclerosis Grade: individual animals; for high density lipoprotein cholesterin (HDL-C) Increase / high density lipoprotein cholesterin (HDL-C) Increase (%) / high density lipoprotein cholesterin (HDL-C) Wk 0 / high density lipoprotein cholesterin (HDL-C) Wk 19 / ligh density lipoprotein cholesterin (LDL-C) Increase / ligh density lipoprotein cholesterin (LDL-C) Increase (%) / ligh density lipoprotein cholesterin (LDL-C) Wk0 / ligh density lipoprotein cholesterin (LDL-C) Wk 19 / total cholesterol (TC) Increase / total cholesterol (TC) Increase (%) / total cholesterol (TC) Wk0 / total cholesterol (TC) Wk 19 / total triglyceride (TG) Increase / total triglyceride (TG) Increase (%) / total triglyceride (TG) Wk 0 / total triglyceride (TG) Wk 19: serum
Experimental: New Zealand rabbits were adopted in this animal study and divided into 5 groups. They were high dose, medium dose and low dose of treatment, positive and vehicle control. The treatment groups were given APOAI via auricular vein once a week. […] Positive controls were given Liptor daily by p.o. with a dose of 0.45 mg/kg body weight. […] The study duration was 19 weeks. At the end of study, all animals were sacrificed. […] Lipid content was examined in liver and aorta. And liver index was also determined.
The body weight was between 1.8-2.0 kg. The animals were quarantined for 5-10 days with normal diet before study.
Animals were randomly divided into 5 groups including vehicle control, high dose, medium dose, low dose and positive control group. Ten to 14 rabbits were in one group. Each rabbit was fed with 30 gram of high fat diet followed by 120 gram of normal diet with free access to water.
The frequency of dosing was once a week. Dose was 80, 40, 20 mg/kg body weight respectively. Drug was given by intravenous injection via auricular vein with the volume of 5 mL.
5.1 body weight: body weight of each rabbit was determined once a week.
Resulted blood samples were kept still for 2 hours and then spin with 4,000 rpm for 10 min.
Abdomen cavity was opened. Whole blood was taken from heart. Heart was harvested along with 7 cm of aorta.
The aorta was dissected for 0.5 cm from aortic arch, split longitudinally and then kept in cryo-preservation tube for later lipid analysis. One piece of this sample was fixed in formalin for further pathological analysis.
The weight of liver was determined immediately. Two pieces of specimen were cut from hepatic lobe.
Resulted blood samples were kept still for 2 hours.
The aorta was dissected and opened for 7.5 cm from aortic arch longitudinally. Pictures were taken and atherosclerosis changing was analyzed.

[2] = system: SK-OV-3-luc ovarian cancer; test: Ovarian cancer survival in mice; type: in vivo; settings: group mean, study still ongoing
Source text: Ovarian cancer study has been conducted at Wuxi AppTec under Dr. Yong Cang and the study is still ongoing as of Aug. 4, 2013. However in order to show the comparison mean days of the death of the mice in each group to compare with the positive drug group which has 76.8 days.
Bioluminescent images of RAAS-20120628-SK-OV-3-luc for all groups.
At day 63 after ovarian cancer has started an experiment of Kieu Hoang AFCC TM by oral application of four mice left from the entire group. That means that by day 63 ovarian cancer has already developed. In the beginning we forced the mice to drink without water, therefore the mice died in early stage.

[3] = system: atherosclerosis in APOE KO mice; type: in vivo
[4] = system: atherosclerosis in LDLR KO mice; test: Efficacy of AFOD RAAS 1 (APOA1) on atherosclerosis, LDLR KO mice; type: in vivo

## human Apolipoprotein AI [APOAI]
[1]; High dose
  Lipid content in aorta: HDL-C: 0.111 ± 0.057
  Lipid content in aorta: LDL-C: 0.318 ± 0.05
  Lipid content in aorta: TC: 0.29 ± 0.098
  Lipid content in aorta: TG: 0.402 ± 0.101
  Lipid content in liver: HDL-C: 0.825 ± 0.129
  Lipid content in liver: LDL-C: 2.302 ± 0.054
  Lipid content in liver: TC: 2.841 ± 0.298
  Lipid content in liver: TG: 1.3 ± 0.171
  TG content in liver vs vehicle control: significantly lower
[1]; Low dose
  Lipid content in aorta: HDL-C: 0.092 ± 0.066
  Lipid content in aorta: LDL-C: 0.254 ± 0.078
  Lipid content in aorta: TC: 0.28 ± 0.047
  Lipid content in aorta: TG: 0.337 ± 0.055
  Lipid content in liver: HDL-C: 0.803 ± 0.236
  Lipid content in liver: LDL-C: 1.857 ± 0.559
  Lipid content in liver: TC: 2.95 ± 0.809
  Lipid content in liver: TG: 1.369 ± 0.251
[1]; Middle dose
  Lipid content in aorta: HDL-C: 0.128 ± 0.064
  Lipid content in aorta: LDL-C: 0.307 ± 0.043
  Lipid content in aorta: TC: 0.332 ± 0.135
  Lipid content in aorta: TG: 0.388 ± 0.124
  Lipid content in liver: HDL-C: 0.815 ± 0.249
  Lipid content in liver: LDL-C: 1.407 ± 0.418
  Lipid content in liver: TC: 2.214 ± 0.515
  Lipid content in liver: TG: 1.081 ± 0.31
[1]; after 12 weeks of high fat diet, 1 animal
  liver and aorta of sacrificed animal: no abnormal change
[1]; all treatment groups
  HDL-C vs vehicle control: significantly high
[1]; high dose group
  number of animals of Grade I: Grade I: 0 animal;
  number of animals of Grade II: Grade II: 5 animals;
  number of animals of Grade III: Grade III: 0 animal;
  number of animals of Grade IV: Grade IV: 3 animals.
  atherosclerosis Grade: II (grade II was between 25% to 50%); also recorded: IV (Grade IV was greater than 75%)
[1]; low dose
  TG content in liver vs vehicle control: significantly lower
  liver cellular swelling vs vehicle control: same in low dose group and vehicle control
  liver fat degeneration vs vehicle control: better
  pathological change of aorta vs vehicle control: no significant improvement
[1]; low dose group
  number of animals of Grade I: Grade I: 9 animals;
  number of animals of Grade II: Grade II: 1 animal;
  number of animals of Grade III: Grade III: 0 animal;
  number of animals of Grade IV: Grade IV: 2 animals.
[1]; medium dose
  LDL-C content in liver vs vehicle control: significantly lower
  TC content in liver vs vehicle control: significantly lower
  TG content in liver vs vehicle control: significantly lower
  area of atherosclerosis vs vehicle control: significant less
  liver cellular swelling and fat degeneration vs vehicle control: better
[1]; medium dose group
  number of animals of Grade I: Grade I: 6 animals;
  number of animals of Grade II: Grade II: 2 animals;
  number of animals of Grade III: Grade III: 0 animal;
  number of animals of Grade IV: Grade IV: 0 animal.
  atherosclerosis Grade: I (grade I was less than 25%); also recorded: II (grade II was between 25% to 50%)
[1]; medium dose, endothelium swelling, smooth muscle migrating, foam cell formation
  pathological change of aorta vs vehicle control: better
[1]; rabbit, in vivo
  atherosclerosis change in Arteria carotis: no atherosclerosis change found
  calcification, pathological examination: no calcification found
[1]; High dose (n = 8)
  high density lipoprotein cholesterin (HDL-C) Increase: 3.81 ± 2.025 mmol/L
  high density lipoprotein cholesterin (HDL-C) Increase (%): 322.1%
  high density lipoprotein cholesterin (HDL-C) Wk 0: 1.183 ± 0.149 mmol/L
  high density lipoprotein cholesterin (HDL-C) Wk 19: 4.993 ± 2.018 mmol/L
  ligh density lipoprotein cholesterin (LDL-C) Increase: 13.18 ± 4.053 mmol/L
  ligh density lipoprotein cholesterin (LDL-C) Increase (%): 1432.6%
  ligh density lipoprotein cholesterin (LDL-C) Wk0: 0.92 ± 0.324 mmol/L
  ligh density lipoprotein cholesterin (LDL-C) Wk 19: 14.1 ± 4.188 mmol/L
  total cholesterol (TC) Increase: 10.90 ± 2.66 mmol/L
  total cholesterol (TC) Increase (%): 685.5%
  total cholesterol (TC) Wk0: 1.59 ± 0.48 mmol/L
  total cholesterol (TC) Wk 19: 12.49 ± 2.81 mmol/L
[1]; Low dose (n = 12)
  high density lipoprotein cholesterin (HDL-C) Increase: 3.04 ± 2.019 mmol/L
  high density lipoprotein cholesterin (HDL-C) Increase (%): 431.2%
  high density lipoprotein cholesterin (HDL-C) Wk 0: 0.705 ± 0.246 mmol/L
  high density lipoprotein cholesterin (HDL-C) Wk 19: 3.744 ± 2.14 mmol/L
  ligh density lipoprotein cholesterin (LDL-C) Increase: 6.472 ± 4.468 mmol/L
  ligh density lipoprotein cholesterin (LDL-C) Increase (%): 783.5%
  ligh density lipoprotein cholesterin (LDL-C) Wk0: 0.826 ± 0.279 mmol/L
  ligh density lipoprotein cholesterin (LDL-C) Wk 19: 7.298 ± 4.60 mmol/L
  total cholesterol (TC) Increase: 8.01 ± 4.87 mmol/L
  total cholesterol (TC) Increase (%): 755.6%
  total cholesterol (TC) Wk0: 1.06 ± 0.27 mmol/L
  total cholesterol (TC) Wk 19: 9.07 ± 4.92 mmol/L
  total triglyceride (TG) Increase: 0.482 ± 0.839 mmol/L
  total triglyceride (TG) Increase (%): 61.3%
  total triglyceride (TG) Wk 0: 0.786 ± 0.229 mmol/L
  total triglyceride (TG) Wk 19: 1.267 ± 0.772 mmol/L
[1]; Medium dose (n = 9)
  high density lipoprotein cholesterin (HDL-C) Increase: 3.674 ± 2.413 mmol/L
  high density lipoprotein cholesterin (HDL-C) Increase (%): 548.4%
  high density lipoprotein cholesterin (HDL-C) Wk 0: 0.67 ± 0.207 mmol/L
  high density lipoprotein cholesterin (HDL-C) Wk 19: 4.343 ± 2.439 mmol/L
  ligh density lipoprotein cholesterin (LDL-C) Increase: 5.297 ± 4.373 mmol/L
  ligh density lipoprotein cholesterin (LDL-C) Increase (%): 499.7%
  ligh density lipoprotein cholesterin (LDL-C) Wk0: 1.06 ± 0.298 mmol/L
  ligh density lipoprotein cholesterin (LDL-C) Wk 19: 6.357 ± 4.475 mmol/L
  total cholesterol (TC) Increase: 8.505 ± 5.37 mmol/L
  total cholesterol (TC) Increase (%): 453.0%
  total cholesterol (TC) Wk0: 1.77 ± 0.783 mmol/L
  total cholesterol (TC) Wk 19: 10.28 ± 5.82 mmol/L
  total triglyceride (TG) Increase: 1.488 ± 0.988 mmol/L
  total triglyceride (TG) Increase (%): 226.8%
  total triglyceride (TG) Wk 0: 0.656 ± 0.191 mmol/L
  total triglyceride (TG) Wk 19: 2.144 ± 1.043 mmol/L
[1]; test article given along with high fat diet
  blood lipid parameters: no significant decrease in blood lipid parameters
[1]; treatment group vs vehicle
  liver index: lower in treatment group, but there's no statistical difference found
[1]; treatment groups
  lipid content in aorta vs vehicle control: lower in treatment groups than that in vehicle control but there was no statistical significance
[2]
  Mean Survival Time: 115.8 days
[3]; APOE KO mice
  reduction and prevention of atherosclerosis: effective in the reduction and prevention of atherosclerosis
[3]; after injection
  pre-B HDL, western blot: increase of pre-B HDL
[3]; mouse, in vivo
  antibody of APOA1 raised in mice: no antibody of APOA1 raised
[4]
  reduction and prevention of atherosclerosis: effective in the reduction and prevention of atherosclerosis
